Patent publication US8278469B2, “17-hydroxy-17-pentafluoroethyl-estra-4,9(10)-dien-11-aryl derivatives, method of production thereof and use thereof for the treatment of diseases” (Bayer Pharma Aktiengesellschaft, priority 2009, dated 2012)
Read-outs that look alike come from different tables or passages of the source.

Experiments:
[1] = molecular target: T1, human progesterone receptor B (PR-B) (Homo sapiens, UniProt P06401); assay: Progesterone receptor-antagonistic action in stable transfectants of SK-N-MC cells with human PR-B and MTV-LUC reporter; assay type: cell-based; conditions: for Emax: read-out: Progesterone receptor B (PR-B) Efficacy
T1 construct: expressed in transfected cells; host or cells: SK-N-MC human neuroblastoma cells, stably transfected with pRChPR-B-neo and pMMTV-LUC
T1 sequence (P06401 1-933): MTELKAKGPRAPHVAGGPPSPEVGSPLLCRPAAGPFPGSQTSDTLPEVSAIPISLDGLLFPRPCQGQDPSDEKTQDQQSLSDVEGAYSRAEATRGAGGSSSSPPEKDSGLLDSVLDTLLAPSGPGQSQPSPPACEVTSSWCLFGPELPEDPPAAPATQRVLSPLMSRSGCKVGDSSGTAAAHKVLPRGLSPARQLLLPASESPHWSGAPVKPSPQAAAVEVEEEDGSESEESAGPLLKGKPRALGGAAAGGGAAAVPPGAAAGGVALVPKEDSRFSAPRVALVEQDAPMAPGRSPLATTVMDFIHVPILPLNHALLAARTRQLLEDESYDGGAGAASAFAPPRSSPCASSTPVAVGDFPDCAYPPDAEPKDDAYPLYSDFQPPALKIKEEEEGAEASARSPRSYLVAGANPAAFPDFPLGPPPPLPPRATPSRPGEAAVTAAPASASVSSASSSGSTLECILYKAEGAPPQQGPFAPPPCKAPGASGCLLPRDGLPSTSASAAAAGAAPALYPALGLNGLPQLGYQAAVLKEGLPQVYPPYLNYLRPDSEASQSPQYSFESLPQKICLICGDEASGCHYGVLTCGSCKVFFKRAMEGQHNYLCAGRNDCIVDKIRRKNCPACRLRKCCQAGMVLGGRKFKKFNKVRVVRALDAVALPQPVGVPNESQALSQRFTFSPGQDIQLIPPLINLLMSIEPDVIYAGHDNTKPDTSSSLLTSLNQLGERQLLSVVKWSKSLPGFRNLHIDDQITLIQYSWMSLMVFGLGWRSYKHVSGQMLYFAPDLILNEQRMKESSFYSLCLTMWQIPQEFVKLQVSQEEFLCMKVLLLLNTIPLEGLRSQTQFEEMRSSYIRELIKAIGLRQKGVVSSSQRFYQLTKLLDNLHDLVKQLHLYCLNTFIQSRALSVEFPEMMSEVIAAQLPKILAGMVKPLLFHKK
Experimental: (§1) Progesterone Receptor-Antagonistic Action in Stable Transfectants of Human Neuroblastoma Cells (SK-N-MC Cells) with the Human Progesterone A or Progesterone B Receptor and an MTV-LUC Reporter Construct
(§2) SK-N-MC cells (human neuroblastoma cells), which have been stably transfected with plasmids, which express the human progesterone receptor B (pRChPR-B-neo) or the human progesterone receptor A (pRChPR-A-neo) and a reporter construct (pMMTV-LUC), were incubated for 24 hours either in the absence (negative control) or in the presence of increasing amounts of the respective test compound (0.01 nmol/l, 0.1 nmol/l, 1 nmol/l, 10 nmol/l, 100 nmol/l and 1 μmol/l), in order to determine the agonistic efficacy. As positive control of reporter gene induction, the cells were treated with the synthetic gestagen promegestone (0.01 nmol/l, 0.1 nmol/l, 1 nmol/l, 10 nmol/l, 100 nmol/l and 1 μmol/l). For determination of the antagonistic activity, the cells were treated with 0.1 nmol/l promegestone and additionally with increasing amounts of the respective test compound (0.01 nmol/l, 0.1 nmol/l, 1 nmol/l, 10 nmol/l, 100 nmol/l and 1 μmol/l). The activity of the LUC reporter gene (LUC=luciferase) was determined in the cell lysates and was measured as RLU (relative light units). All measured values are given as percentage efficacy and as EC50 or IC50 concentrations.
(§3) 11β-(4-Acetylphenyl)-20,20,21,21,21-pentafluoro-17-hydroxy-19-nor-17α-pregna-4,9-dien-3-one and 20,20,21,21,21-pentafluoro-17-hydroxy-11β-[4-(hydroxyacetyl)phenyl]-19-nor-17α-pregna-4,9-dien-3-one, very potent and therefore preferred examples from WO98/34947 and WO2008/058767, were tested as comparative compounds along with the test compound.

[2] = molecular target: T2, human progesterone receptor A (PR-A) (Homo sapiens, UniProt P06401); assay: Progesterone receptor-antagonistic action in stable transfectants of SK-N-MC cells with human PR-A and MTV-LUC reporter; assay type: cell-based; conditions: for Emax: read-out: Progesterone receptor A (PR-A) Efficacy
T2 construct: expressed in transfected cells; host or cells: SK-N-MC human neuroblastoma cells, stably transfected with pRChPR-A-neo and pMMTV-LUC
T2 sequence (P06401 1-769 isoform P06401-2): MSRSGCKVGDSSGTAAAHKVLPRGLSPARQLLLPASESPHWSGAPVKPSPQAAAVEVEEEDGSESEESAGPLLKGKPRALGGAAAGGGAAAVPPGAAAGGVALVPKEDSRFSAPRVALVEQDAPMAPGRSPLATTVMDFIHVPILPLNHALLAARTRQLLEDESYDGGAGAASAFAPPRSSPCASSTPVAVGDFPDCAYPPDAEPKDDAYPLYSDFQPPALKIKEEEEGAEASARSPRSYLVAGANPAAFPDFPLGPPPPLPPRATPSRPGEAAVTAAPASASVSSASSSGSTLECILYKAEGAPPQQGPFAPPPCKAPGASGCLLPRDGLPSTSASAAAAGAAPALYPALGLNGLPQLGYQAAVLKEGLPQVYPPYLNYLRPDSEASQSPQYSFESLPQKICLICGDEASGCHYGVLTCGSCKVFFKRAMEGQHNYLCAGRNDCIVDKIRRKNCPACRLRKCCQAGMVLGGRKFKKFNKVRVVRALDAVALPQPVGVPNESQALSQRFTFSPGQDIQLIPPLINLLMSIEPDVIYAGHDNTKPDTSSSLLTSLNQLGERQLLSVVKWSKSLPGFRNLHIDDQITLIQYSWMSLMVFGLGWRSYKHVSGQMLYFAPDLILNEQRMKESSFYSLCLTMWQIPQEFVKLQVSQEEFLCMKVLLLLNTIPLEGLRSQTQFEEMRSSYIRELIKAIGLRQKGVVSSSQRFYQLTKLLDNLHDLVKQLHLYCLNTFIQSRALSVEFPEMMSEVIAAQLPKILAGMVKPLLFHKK
Experimental: as §1, §2, §3

[3] = antagonistic activity against 0.1 nmol/l promegestone, SK-N-MC cells, 24 hours, LUC reporter, read-out: Progesterone receptor B (PR-B) Potency IC50
[4] = antagonistic activity against 0.1 nmol/l promegestone, SK-N-MC cells, 24 hours, LUC reporter, read-out: Progesterone receptor A (PR-A) Potency IC50
[5] = antagonistic efficacy against 0.1 nmol/l promegestone, SK-N-MC cells, 24 hours

| SMILES | Emax ([1]; SK-N-MC, 24 h) [%] | IC50 [1, 3] [nM] | Emax ([2]; SK-N-MC, 24 h) [%] | IC50 [2, 4] [nM] | IC50 [1] [nM] | Emax [1, 5] [%] | IC50 [2] [nM] | Emax [2, 5] [%] |
| --- | --- | --- | --- | --- | --- | --- | --- | --- |
| C[S+]([O-])c1ccc([C@H]2C[C@@]3(C)[C@@H](CC[C@@]3(O)C(F)(F)C(F)(F)F)[C@@H]3CCC4=CC(=O)CCC4=C32)cc1 (mixture of isomers) [Example 3, (11β,17β)-17-Hydroxy-11-{4-[(RS)-methylsulphinyl]phenyl}-17-(pentafluoroethyl)estra-4,9-dien-3-one] | 100 | 0.12 | 100 | 0.11 |  |  |  |  |
| Cc1ccc(S(=O)(=O)N=S(C)(=O)c2ccc([C@H]3C[C@@]4(C)C(CC[C@@]4(O)C(F)(F)C(F)(F)F)C4CCC5=CC(=O)CCC5=C43)cc2)cc1 (mixture of isomers) [Example 7, N-[{4-[(11β,17β)-17-hydroxy-3-oxo-17-(pentafluoroethyl)estra-4,9-dien-11-yl]phenyl}(RS)(methyl)oxido-λ^6-sulphanylidene]-4-methylbenzene sulphonamide] |  |  |  |  | 0.8 | 100 | 1 | 100 |
| Cc1ccc(S(=O)(=O)N=S(C)(=O)c2ccc(-c3ccc([C@H]4C[C@@]5(C)C(CC[C@@]5(O)C(F)(F)C(F)(F)F)C5CCC6=CC(=O)CCC6=C54)cc3)cc2)cc1 (mixture of isomers) [Example 11, N-[{4′-[(11β,17β)-17-hydroxy-3-oxo-17-(pentafluoroethyl)estra-4,9-dien-11-yl]biphenyl-4-yl}(RS)(methyl)oxido-λ^6-sulphanylidene]-4-methylbenzene sulphonamide] |  | 0.01 |  | 0.01 |  | 100 |  | 100 |
| CC(=O)c1ccc(C2CC3(C)C(CCC3(O)C(F)(F)C(F)(F)F)C3CCC4=CC(=O)CCC4=C23)cc1 (stereo not drawn) [11β-(4-Acetylphenyl)-20,20,21,21,21-pentafluoro-17-hydroxy-19-nor-17α-pregna-4,9-dien-3-one, reference compound] |  |  |  |  |  | 100 |  | 100 |
| C[C@]12C[C@H](c3ccc(C(=O)CO)cc3)C3=C4CCC(=O)C=C4CC[C@H]3[C@@H]1CC[C@@]2(O)C(F)(F)C(F)(F)F [20,20,21,21,21-pentafluoro-17-hydroxy-11β-[4-(hydroxyacetyl)phenyl]-19-nor-17α-pregna-4,9-dien-3-one, reference compound] | 100 |  | 100 |  |  |  |  |  |
| CSc1ccc([C@H]2C[C@@]3(C)[C@@H](CC[C@@]3(O)C(F)(F)C(F)(F)F)[C@@H]3CCC4=CC(=O)CCC4=C32)cc1 [Example 1, (11β,17β)-17-hydroxy-11-[4-(methylsulphanyl)phenyl]-17-(pentafluoroethyl)estra-4,9-dien-3-one] | 100 | 0.012 | 100 |  |  |  |  |  |
| CCSc1ccc([C@H]2C[C@@]3(C)C(CC[C@@]3(O)C(F)(F)C(F)(F)F)C3CCC4=CC(=O)CCC4=C32)cc1 (stereo partly drawn) [Example 2, (11β,17β)-11-[4-(ethylsulphanyl)phenyl]-17-hydroxy-17-(pentafluoroethyl)estra-4,9-dien-3-one] |  |  |  |  |  | 100 |  | 100 |
| CCS(=O)(=O)c1ccc([C@H]2C[C@@]3(C)C(CC[C@@]3(O)C(F)(F)C(F)(F)F)C3CCC4=CC(=O)CCC4=C32)cc1 (stereo partly drawn) [Example 5, (11β,17β)-11-[4-(ethylsulphonyl)phenyl]-17-hydroxy-17-(pentafluoroethyl)estra-4,9-dien-3-one] |  | 0.09 |  | 0.1 |  | 100 |  | 100 |
| C[C@]12C[C@H](c3ccc(SCc4ccccc4)cc3)C3=C4CCC(=O)C=C4CCC3C1CC[C@@]2(O)C(F)(F)C(F)(F)F (stereo partly drawn) [Example 6, (11β,17β)-11-[4-(benzylsulphanyl)phenyl]-17-hydroxy-17-(pentafluoroethyl)estra-4,9-dien-3-one] |  | 0.23 |  | 0.2 |  | 100 |  | 100 |
| C[C@]12C[C@H](c3ccc(S(C)(=N)=O)cc3)C3=C4CCC(=O)C=C4CCC3C1CC[C@@]2(O)C(F)(F)C(F)(F)F (stereo partly drawn) [Example 8, (11β,17β)-17-Hydroxy-11-[4-(RS-methylsulphonimidoyl)phenyl]-17-(pentafluoroethyl)estra-4,9-dien-3-one] | 100 | 0.9 | 100 | 0.9 |  |  |  |  |
| CSc1ccc(-c2ccc([C@H]3C[C@@]4(C)[C@@H](CC[C@@]4(O)C(F)(F)C(F)(F)F)[C@@H]4CCC5=CC(=O)CCC5=C43)cc2)cc1 [Example 9, (11β,17β)-17-Hydroxy-11-[4′-(methylsulphanyl)biphenyl-4-yl]-17-(pentafluoroethyl)estra-4,9-dien-3-one] |  |  |  |  |  | 100 |  | 100 |
| C[C@]12C[C@H](c3ccc(-c4ccc(S(C)(=N)=O)cc4)cc3)C3=C4CCC(=O)C=C4CCC3C1CC[C@@]2(O)C(F)(F)C(F)(F)F (stereo partly drawn) [Example 12, (11β,17β)-17-hydroxy-11-[4′-(RS-methylsulphonimidoyl)biphenyl-4-yl]-17-(pentafluoroethyl)estra-4,9-dien-3-one] |  | 0.08 |  | 0.08 |  | 100 |  | 100 |
| C[C@]12C[C@H](c3ccc(-c4ccc(S)cc4)cc3)C3=C4CCC(=O)C=C4CC[C@H]3[C@@H]1CC[C@@]2(O)C(F)(F)C(F)(F)F [Example 13, (11β,17β)-17-hydroxy-17-(pentafluoroethyl)-11-(4′-sulphanylbiphenyl-4-yl)estra-4,9-dien-3-one] |  | 0.072 |  | 0.072 |  | 100 |  | 100 |
| CN(C)S(=O)(=O)c1ccc(-c2ccc([C@H]3C[C@@]4(C)[C@@H](CC[C@@]4(O)C(F)(F)C(F)(F)F)[C@@H]4CCC5=CC(=O)CCC5=C43)cc2)cc1 [Example 14, 4′-[(11β,17β)-17-hydroxy-3-oxo-17-(pentafluoroethyl)estra-4,9-dien-11-yl]-N,N-dimethylbiphenyl-4-sulphonamide] |  |  |  |  |  | 100 |  | 100 |
